| logP | SMILES |
| --- | --- |
| 1.28 | O=C(O[C@@H]1COC(=O)c2cc(O)c(O)c(O)c2-c2c(cc(O)c(O)c2O)C(=O)OC1[C@@H]1OC(=O)c2cc(O)c(O)c(O)c2-c2c(O)c(O)c(O)c3c2C(=O)O[C@H]1[C@H]3O)c1cc(O)c(O)c(O)c1 (stereo not given in full) |
| -0.33 | O=C(OCC1OC(OC(=O)c2cc(O)c(O)c(O)c2)C(O)C(O)C1O)c1cc(O)c(O)c(O)c1 (stereo not given) |
| 0.7 | O=c1c(O[C@@H]2O[C@H](CO)[C@@H](O)[C@H](O)[C@H]2O)c(-c2ccc(O)c(O)c2)oc2cc(O)cc(O)c12 |
| -2.15 | O=C(OC[C@H]1OC(O)[C@@H]2OC(=O)c3cc(O)c(O)c(O)c3-c3c(cc(O)c(O)c3O)C(=O)O[C@H]2[C@@H]1OC(=O)c1cc(O)c(O)c(O)c1-c1c(O)c(O)c2oc(=O)c3cc(O)c(O)c4oc(=O)c1c2c43)c1cc(O)c(O)c(O)c1 (stereo not given in full) |
| 1 | COc1cc(O)c2c(=O)cc(C)oc2c1 |
| -1.07 | O=C(O[C@@H]1O[C@@H]2COC(=O)c3cc(O)c(O)c(O)c3-c3c(cc(O)c(O)c3O)C(=O)O[C@H]2[C@@H]2OC(=O)c3cc(O)c(O)c(O)c3-c3c(cc(O)c(O)c3O)C(=O)O[C@@H]12)c1cc(O)c(O)c(O)c1 |
| -1.89 | O=C(O[C@@H]1O[C@H](CO)[C@@H](O)[C@H](O)[C@H]1O)c1cc(O)c(O)c(O)c1 |
| -0.35 | O=CC(O)(COC(=O)c1cc(O)c(O)c(O)c1)C(O)C(O)COC(=O)c1cc(O)c(O)c(O)c1 (stereo not given) |
| -2.1 | O=C1OC[C@H]2OC(O)[C@@H]3OC(=O)c4cc(O)c(O)c(O)c4-c4c(cc(O)c(O)c4O)C(=O)O[C@H]3[C@@H]2OC(=O)c2cc(O)c(O)c(O)c2-c2c1cc(O)c(O)c2O (stereo not given in full) |
| 1.68 | O=C(O[C@H]1Cc2c(O)cc(O)cc2O[C@H]1c1ccc(O)c(O)c1)c1cc(O)c(O)c(O)c1 |
| -2.7 | O=CC1OC(=O)c2cc(O)c(O)c(O)c2-c2c(cc(O)c(O)c2O)C(=O)OC1C1OC(=O)c2cc(O)c(O)c(O)c2-c2c(O)c(O)c3oc(=O)c4c(c(O)c(O)c5oc(=O)c2c3c54)-c2c(cc(O)c(O)c2O)C(=O)OCC1O (stereo not given) |
| 0.61 | O=C(OCC1O[C@@H](O)C(O)(COC(=O)c2cc(O)c(O)c(O)c2)C1OC(=O)c1cc(O)c(O)c(O)c1)c1cc(O)c(O)c(O)c1 (stereo not given in full) |
| -0.52 | Oc1cc(O)c2c(c1)OC(c1ccc(O)c(O)c1)C(O)C2c1c(O)cc(O)c2c1O[C@H](c1ccc(O)c(O)c1)[C@@H](O)C2 (stereo in doubt) |
| -1.19 | O=C(O[C@@H]1O[C@@H]2COC(=O)c3cc(O)c(O)c(O)c3-c3c(cc(O)c(O)c3O)C(=O)O[C@H]([C@H]1O)[C@@H]2O)c1cc(O)c(O)c(O)c1 |

| SMILES | logP |
| --- | --- |
| O=C(O[C@@H]1Cc2c(O)cc(O)cc2O[C@@H]1c1cc(O)c(O)c(O)c1)c1cc(O)c(O)c(O)c1 | 1.08 |

Source: the SangsterLogP compilation
